The text below walks through data of patent US20050256003A1, “Novel herbicides” (priority 2002, published 2005).

The subject of this test is selected test plants. Put plainly: Post-emergence action in a different test arrangement (Table B3). In kind it is in vivo. Further details: key to Post-emergence action (different test arrangement), Nasturtium / Post-emergence action (different test arrangement), Stellaria / Post-emergence action (different test arrangement), Solanum: 10=total damage; 0=no action; Ratings of from 10 to 7 (especially from 10 to 8) indicate good to very good herbicidal action. The note with it: 250 g a.i./ha.

With `O=C1CCCC(O)=C1C(=O)c1ccc(C(F)(F)F)nc1CN1CCC1=O` [Compound A1.221], the “Post-emergence action (different test arrangement), Amaranthus” value stood at 9; the “Post-emergence action (different test arrangement), Nasturtium” value amounted to 10; the “Post-emergence action (different test arrangement), Solanum” value was determined as 9; the “Post-emergence action (different test arrangement), Stellaria” value worked out at 9.

Turning to `Cn1ncc(C(=O)c2ccc(C(F)(F)F)nc2CN2CCC2=O)c1O` [Compound B1.225], the “Post-emergence action (different test arrangement), Amaranthus” value was 8; the “Post-emergence action (different test arrangement), Nasturtium” value is given as 10; the “Post-emergence action (different test arrangement), Solanum” value worked out at 9; the “Post-emergence action (different test arrangement), Stellaria” value is on record as 10.

In the case of `Cn1ncc(C(=O)c2ccc(C(F)(F)F)nc2CN2CCCC2=O)c1O` [Compound B1.223], the “Post-emergence action (different test arrangement), Amaranthus” value was 8; the “Post-emergence action (different test arrangement), Nasturtium” value is 10; the “Post-emergence action (different test arrangement), Solanum” value is reported as 9; the “Post-emergence action (different test arrangement), Stellaria” value worked out at 10.

Consider `CC1CCN(Cc2nc(C(F)(F)F)ccc2C(=O)c2cnn(C)c2O)C1=O` (centres unmarked) [Compound B1.226], for which the “Post-emergence action (different test arrangement), Amaranthus” value is on record as 8; the “Post-emergence action (different test arrangement), Nasturtium” value was 10; the “Post-emergence action (different test arrangement), Solanum” value is given as 9; the “Post-emergence action (different test arrangement), Stellaria” value is listed as 9.

As for `CC1CCC(=O)N1Cc1nc(C(F)(F)F)ccc1C(=O)C1=C(O)CCCC1=O` (centres unmarked) [Compound A1.223], the “Post-emergence action (different test arrangement), Amaranthus” value is reported as 8; the “Post-emergence action (different test arrangement), Nasturtium” value stood at 10; the “Post-emergence action (different test arrangement), Solanum” value is reported as 9; the “Post-emergence action (different test arrangement), Stellaria” value was 9.

`CC(C)N1CC(=O)N(Cc2nc(C(F)(F)F)ccc2C(=O)C2=C(O)CCCC2=O)C1=O` [Compound A1.175]: the “Post-emergence action (different test arrangement), Amaranthus” value was determined as 7; the “Post-emergence action (different test arrangement), Nasturtium” value is listed as 8; the “Post-emergence action (different test arrangement), Solanum” value worked out at 9; the “Post-emergence action (different test arrangement), Stellaria” value turned out to be 7.

Take `O=C1CCCC(O)=C1C(=O)c1ccc(C(F)(F)F)nc1COCCN1CCCC1=O` [Compound A1.220]: the “Post-emergence action (different test arrangement), Amaranthus” value is recorded as 9; the “Post-emergence action (different test arrangement), Nasturtium” value came to 10; the “Post-emergence action (different test arrangement), Solanum” value was determined as 9; the “Post-emergence action (different test arrangement), Stellaria” value turned out to be 10.

For `Cn1c(=O)n(Cc2nc(C(F)(F)F)ccc2C(=O)C2=C(O)CCCC2=O)c(=O)n1C` [Compound A1.211], the “Post-emergence action (different test arrangement), Amaranthus” value is 9; the “Post-emergence action (different test arrangement), Nasturtium” value is 10; the “Post-emergence action (different test arrangement), Solanum” value stood at 9; the “Post-emergence action (different test arrangement), Stellaria” value is 7.

As to `Cc1nc(C)n(Cc2nc(C(F)(F)F)ccc2C(=O)C2=C(O)CCCC2=O)c(=O)c1Cl` [Compound A1.209], the “Post-emergence action (different test arrangement), Amaranthus” value amounted to 7; the “Post-emergence action (different test arrangement), Nasturtium” value was 9; the “Post-emergence action (different test arrangement), Solanum” value amounted to 9; the “Post-emergence action (different test arrangement), Stellaria” value worked out at 7.

Take `CN1CCN(Cc2nc(C(F)(F)F)ccc2C(=O)C2=C(O)CCCC2=O)C1=O` [Compound A1.213]: the “Post-emergence action (different test arrangement), Amaranthus” value is reported as 9; the “Post-emergence action (different test arrangement), Nasturtium” value stood at 9; the “Post-emergence action (different test arrangement), Solanum” value is 9; the “Post-emergence action (different test arrangement), Stellaria” value was 9.

On to `Cc1nn(Cc2nc(C(F)(F)F)ccc2C(=O)C2=C(O)CCCC2=O)c(=O)o1` [Compound A1.097, 3-[3-(2-Hydroxy-6-oxo-cyclohex-1-enecarbonyl)-6-trifluoromethyl-pyridin-2-ylmethyl]-5-methyl-3H-[1.3.4]oxadiazol-2-one], for which the “Post-emergence action (different test arrangement), Amaranthus” value turned out to be 9; the “Post-emergence action (different test arrangement), Nasturtium” value was 10; the “Post-emergence action (different test arrangement), Solanum” value is 9; the “Post-emergence action (different test arrangement), Stellaria” value was determined as 9.
